# Measurements: patent publication US6479435B1, “Diaryl ethers and processes for their preparation and herbicidal and desiccant compositions containing them” (ISK Americas Incorporated, priority 1997, dated 2002)
# Assays:
# Type in all cases: in vivo
# [1] = test system: barnyardgrass (Echinochloa crusgalli, ECHCG); assay: Pre-emerge greenhouse herbicide test, phytotoxicity rating; settings: 14 days after application, rating scale 0-100
# How it was run: (§1)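 Seeds sown in sandy loam mix one day before track-sprayer application of compounds in acetone at 125–1000 g ai/ha (187 l/ha), then surface-watered to incorporate and bottom-watered. Visual rating 14 days after application on a 0–100 scale (0 = no damage, 100 = all plants dead).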
# [2] = test system: sicklepod (Cassia obtusifolia, CASOB); assay: as above; settings: 14 days after application, rating scale 0-100
# How it was run: as §1
# [3] = test system: ivyleaf morningglory (Ipomoea hederacea, IPOHE); assay: as above; settings: 14 days after application, rating scale 0-100
# How it was run: as §1
# [4] = test system: redroot pigweed (Amaranthus retroflexus, AMARE); assay: as above; settings: 14 days after application, rating scale 0-100
# How it was run: as §1
# [5] = test system: large crabgrass (Digitaria sanguinalis, DIGSA); assay: as above; settings: 14 days after application, rating scale 0-100
# How it was run: as §1
# [6] = test system: lambsquarters (Chenopodium album, CHEAL); assay: as above; settings: 14 days after application, rating scale 0-100
# How it was run: as §1
# [7] = test system: Johnsongrass (Sorghum halepense, SORHA); assay: as above; settings: 14 days after application, rating scale 0-100
# How it was run: as §1
# [8] = test system: green foxtail (Setaria viridis, SETVI); assay: as above; settings: 14 days after application, rating scale 0-100
# How it was run: as §1
# [9] = test system: velvetleaf (Abutilon theophrasti, ABUTH); assay: as above; settings: 14 days after application, rating scale 0-100
# How it was run: as §1
# [10] = test system: common ragweed (Ambrosia artemisiifolia L., AMBEL); assay: as above; settings: 14 days after application, rating scale 0-100
# How it was run: as §1
# [11] = test system: soybean (Glycine max L., var. Pella 86, SOY); assay: Post-emerge greenhouse test, crop damage rating; design: key to crop damage rating SOY: 0-100 scale: 0 = no damage, 100 = complete death of all plants; settings: 14 days after application; for crop damage rating SOY: scale 0-100
# How it was run: (§2)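 Compounds in acetone with 0.25% v/v non-ionic surfactant were track-sprayed at 187 l/ha over plants at the 2-3 leaf stage, at 63 to 1000 g ai/ha. Pots were bottom-watered. Injury was scored visually 14 days later on a 0-100 scale, where 0 is no damage and 100 is complete plant death.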
# [12] = test system: field corn (Zea mays L., var. Dekalb 535, CORN); assay: Post-emerge greenhouse test, crop damage rating; settings: 14 days after application; for crop damage rating CORN: scale 0-100
# How it was run: as §2
# [13] = test system: upland rice (Oryza sp., var.Tebonnet, RICE); assay: Post-emerge greenhouse test, crop damage rating; settings: 14 days after application; for crop damage rating RICE: scale 0-100
# How it was run: as §2
# [14] = test system: barnyardgrass (Echinochloa crusgalli, ECHCG); assay: Post-emerge greenhouse herbicide test, phytotoxicity rating; settings: 14 days after application; for phytotoxicity rating ECHCG: scale 0-100
# How it was run: as §2
# [15] = test system: ivyleaf morningglory (Ipomoea hederacea, IPOHE); assay: as above; settings: 14 days after application; for phytotoxicity rating IPOHE: scale 0-100
# How it was run: as §2
# [16] = test system: redroot pigweed (Amaranthus retroflexus, AMARE); assay: as above; settings: 14 days after application; for phytotoxicity rating AMARE: scale 0-100
# How it was run: as §2
# [17] = test system: large crabgrass (Digitaria sanguinalis, DIGSA); assay: as above; settings: 14 days after application; for phytotoxicity rating DIGSA: scale 0-100
# How it was run: as §2
# [18] = test system: lambsquarters (Chenopodium album, CHEAL); assay: as above; settings: 14 days after application; for phytotoxicity rating CHEAL: scale 0-100
# How it was run: as §2
# [19] = test system: Johnsongrass (Sorghum halepense, SORHA); assay: as above; settings: 14 days after application
# How it was run: as §2
# [20] = test system: green foxtail (Setaria viridis, SETVI); assay: as above; settings: 14 days after application; for phytotoxicity rating SETVI: scale 0-100
# How it was run: as §2
# [21] = test system: velvetleaf (Abutilon theophrasti, ABUTH); assay: as above; settings: 14 days after application; for phytotoxicity rating ABUTH: scale 0-100
# How it was run: as §2
# [22] = test system: field corn (Zea mays L., var. Dekalb 535, CORN); assay: Pre-emerge greenhouse test, crop damage rating; settings: 14 days after application, rating scale 0-100
# How it was run: as §1
# [23] = test system: upland rice (Oryza sp., var.Tebonnet, RICE); assay: Pre-emerge greenhouse test, crop damage rating; settings: 14 days after application, rating scale 0-100
# How it was run: as §1
# [24] = test system: soybean (Glycine max L., var. Pella 86, SOY); assay: Pre-emerge greenhouse test, crop damage rating; design: key to SOY crop damage rating: 0 = no damage, 100 = complete death of all plants; settings: 14 days after application, rating scale 0-100
# How it was run: as §1
# [25] = test system: common ragweed (Ambrosia artemisiifolia L., AMBEL); assay: Post-emerge greenhouse herbicide test, phytotoxicity rating; settings: 14 days after application; for phytotoxicity rating AMBEL: scale 0-100
# How it was run: as §2
compound,measurement,setting,value
Cn1nc(-c2cc(Oc3ccc(C#N)cn3)c(Cl)cc2F)c(Cl)c1C(F)(F)F [Compound 1-4],phytotoxicity rating ECHCG,[1]; 125 g ai/ha,0
same,phytotoxicity rating ECHCG,[1]; 500 g ai/ha,20
same,phytotoxicity rating CASOB,[2]; 125 g ai/ha,0
same,phytotoxicity rating CASOB,[2]; 500 g ai/ha,0
same,phytotoxicity rating IPOHE,[3]; 125 g ai/ha,0
same,phytotoxicity rating IPOHE,[3]; 500 g ai/ha,30
same,phytotoxicity rating AMARE,[4]; 125 g ai/ha,100
same,phytotoxicity rating AMARE,[4]; 500 g ai/ha,100
same,phytotoxicity rating DIGSA,[5]; 125 g ai/ha,50
same,phytotoxicity rating DIGSA,[5]; 500 g ai/ha,50
same,phytotoxicity rating CHEAL,[6]; 125 g ai/ha,90
same,phytotoxicity rating CHEAL,[6]; 500 g ai/ha,95
same,phytotoxicity rating SORHA,[7]; 125 g ai/ha,20
same,phytotoxicity rating SORHA,[7]; 500 g ai/ha,95
same,phytotoxicity rating SETVI,[8]; 125 g ai/ha,90
same,phytotoxicity rating SETVI,[8]; 500 g ai/ha,99
same,phytotoxicity rating ABUTH,[9]; 125 g ai/ha,0
same,phytotoxicity rating ABUTH,[9]; 500 g ai/ha,80
same,phytotoxicity rating AMBEL,[10]; 125 g ai/ha,0
same,phytotoxicity rating AMBEL,[10]; 500 g ai/ha,20
same,SOY crop damage rating (0-100),[11]; 63 g al/ha,0
same,SOY crop damage rating (0-100),[11]; 500 g al/ha,80
same,CORN crop damage rating (0-100),[12]; 63 g al/ha,0
same,CORN crop damage rating (0-100),[12]; 500 g al/ha,0
same,RICE crop damage rating (0-100),[13]; 63 g al/ha,20
same,RICE crop damage rating (0-100),[13]; 500 g al/ha,50
same,ECHCG phytotoxicity rating (0-100),[14]; 63 g al/ha,0
same,ECHCG phytotoxicity rating (0-100),[14]; 500 g al/ha,50
same,IPOHE phytotoxicity rating (0-100),[15]; 63 g al/ha,70
same,IPOHE phytotoxicity rating (0-100),[15]; 500 g al/ha,100
same,AMARE phytotoxicity rating (0-100),[16]; 63 g al/ha,100
same,AMARE phytotoxicity rating (0-100),[16]; 500 g al/ha,100
same,DIGSA phytotoxicity rating (0-100),[17]; 63 g al/ha,20
same,DIGSA phytotoxicity rating (0-100),[17]; 500 g al/ha,40
same,CHEAL phytotoxicity rating (0-100),[18]; 63 g al/ha,0
same,CHEAL phytotoxicity rating (0-100),[18]; 500 g al/ha,100
same,SORHA phytotoxicity rating (0-100),[19]; 63 g al/ha,40
same,SORHA phytotoxicity rating (0-100),[19]; 500 g al/ha,80
same,SETVI phytotoxicity rating (0-100),[20]; 63 g al/ha,0
same,SETVI phytotoxicity rating (0-100),[20]; 500 g al/ha,70
same,ABUTH phytotoxicity rating (0-100),[21]; 63 g al/ha,30
same,ABUTH phytotoxicity rating (0-100),[21]; 500 g al/ha,90
same,crop damage rating CORN,[22]; 125 g ai/ha,10
same,crop damage rating CORN,[22]; 500 g ai/ha,0
same,crop damage rating RICE,[23]; 125 g ai/ha,30
same,crop damage rating SOY,[24]; 125 g ai/ha,10
same,crop damage rating SOY,[24]; 500 g ai/ha,0
same,AMBEL phytotoxicity rating (0-100),[25]; 63 g al/ha,20
same,AMBEL phytotoxicity rating (0-100),[25]; 500 g al/ha,70
Cc1nsc(Oc2cc(-n3c(=O)n4n(c3=S)CCCC4)c(F)cc2Cl)c1[N+](=O)[O-] [Compound 8-35],ECHCG phytotoxicity rating,[1]; Rate 125 g al/ha,10
same,ECHCG phytotoxicity rating,[1]; Rate 500 g al/ha,90
same,CASOB phytotoxicity rating,[2]; Rate 125 g al/ha,30
same,CASOB phytotoxicity rating,[2]; Rate 500 g al/ha,100
same,IPOHE phytotoxicity rating,[3]; Rate 125 g al/ha,50
same,IPOHE phytotoxicity rating,[3]; Rate 500 g al/ha,100
same,AMARE phytotoxicity rating,[4]; Rate 125 g al/ha,100
same,AMARE phytotoxicity rating,[4]; Rate 500 g al/ha,100
same,DIGSA phytotoxicity rating,[5]; Rate 125 g al/ha,0
same,DIGSA phytotoxicity rating,[5]; Rate 500 g al/ha,80
same,CHEAL phytotoxicity rating,[6]; Rate 125 g al/ha,100
same,CHEAL phytotoxicity rating,[6]; Rate 500 g al/ha,100
same,SORHA phytotoxicity rating,[7]; Rate 125 g al/ha,20
same,SORHA phytotoxicity rating,[7]; Rate 500 g al/ha,90
same,SETVI phytotoxicity rating,[8]; Rate 125 g al/ha,90
same,SETVI phytotoxicity rating,[8]; Rate 500 g al/ha,100
same,ABUTH phytotoxicity rating,[9]; Rate 125 g al/ha,100
same,ABUTH phytotoxicity rating,[9]; Rate 500 g al/ha,100
same,AMBEL phytotoxicity rating,[10]; Rate 125 g al/ha,50
same,AMBEL phytotoxicity rating,[10]; Rate 500 g al/ha,90
same,crop damage rating SOY,[11]; rate 63 g ai/ha,20
same,crop damage rating SOY,[11]; rate 500 g ai/ha,90
same,crop damage rating CORN,[12]; rate 63 g ai/ha,10
same,crop damage rating CORN,[12]; rate 500 g ai/ha,10
same,crop damage rating RICE,[13]; rate 63 g ai/ha,20
same,crop damage rating RICE,[13]; rate 500 g ai/ha,50
same,phytotoxicity rating ECHCG,[14]; rate 63 g ai/ha,0
same,phytotoxicity rating ECHCG,[14]; rate 500 g ai/ha,80
same,phytotoxicity rating IPOHE,[15]; rate 63 g ai/ha,40
same,phytotoxicity rating IPOHE,[15]; rate 500 g ai/ha,95
same,phytotoxicity rating AMARE,[16]; rate 63 g ai/ha,95
same,phytotoxicity rating AMARE,[16]; rate 500 g ai/ha,100
same,phytotoxicity rating DIGSA,[17]; rate 63 g ai/ha,0
same,phytotoxicity rating DIGSA,[17]; rate 500 g ai/ha,10
same,phytotoxicity rating CHEAL,[18]; rate 63 g ai/ha,80
same,phytotoxicity rating CHEAL,[18]; rate 500 g ai/ha,99
same,phytotoxicity rating SORHA,"[19]; rate 500 g ai/ha, scale 0-100",80
same,phytotoxicity rating SETVI,[20]; rate 63 g ai/ha,40
same,phytotoxicity rating SETVI,[20]; rate 500 g ai/ha,60
same,phytotoxicity rating ABUTH,[21]; rate 63 g ai/ha,100
same,phytotoxicity rating ABUTH,[21]; rate 500 g ai/ha,100
same,CORN crop damage rating,[22]; Rate 125 g al/ha,30
same,CORN crop damage rating,[22]; Rate 500 g al/ha,30
same,RICE crop damage rating,[23]; Rate 500 g al/ha,70
same,SOY crop damage rating,[24]; Rate 125 g al/ha,0
same,SOY crop damage rating,[24]; Rate 500 g al/ha,30
same,phytotoxicity rating AMBEL,[25]; rate 63 g ai/ha,10
same,phytotoxicity rating AMBEL,[25]; rate 500 g ai/ha,10
